Test results: publication PMC4640093, “Lipophilic prodrugs of nucleoside triphosphates as biochemical probes and potential antivirals” (Nature Communications, 2015)

How the values were obtained:
[1] = Chemical hydrolysis in PBS, pH 7.3; type: physicochemical; settings: PBS pH 7.3, 37 °C; for t1/2(1) PBS, pH=7.3: removal of first masking unit (half-lives of 3); for t1/2(2) PBS, pH=7.3: second hydrolysis step, half-lives of intermediate 4 to give d4TTP 19
Protocol: Stock solutions (50 mM in DMSO-d6) of the appropriate compounds were prepared. After dilution of 11 μl with 100 μl Millipore water and 189 μl DMSO-d6 to 1.9 mM hydrolysis solutions the reaction was started by the addition of 300 μl PBS (50 mM, pH 7.3). The solution was incubated at 37 °C in a thermomixer. An initial aliquot (25 μl) was taken directly and analysed by analytical HPLC at 265–266 nm. Further aliquots were taken for monitoring the kinetic hydrolysis. The exponential decay curves (pseudo-first order) based on absolute integral values were calculated with commercially available software (OriginPro 9.0G) and yielded the half-lives t1/2(1) and t1/2(2) of the prodrugs via one determination.

pig liver esterase (PLE) = assay: Enzymatic hydrolysis with pig liver esterase (PLE) in PBS; type: in vitro ADME; settings: PLE in PBS pH 7.3, 37 °C; for t1/2(1) PLE: removal of first masking unit (half-lives of 3); for t1/2(2) PLE: second hydrolysis step, half-lives of intermediate 4
Protocol: Furthermore, 140 μl of the 6.0 mM solution was diluted with 105 μl DMSO-d6 and 700 μl 50 mM PBS buffer. The reaction was started by addition of 52.5 μl of PLE in PBS buffer (3 mg ml^−1) and the mixture was incubated at 37 °C in a thermomixer. At different times, aliquots (125 μl) were taken and treated as follows: (a) for 3a–g,l,m and 4a,e the reaction was stopped by addition to 132.5 μl MeOH. […] (b) For 3h,i,k,n and 4j, the sample was directly frozen in liquid nitrogen.

HIV-1(IIIB) = assay: Anti-HIV activity assay, HIV-1 in wild-type CEM/0 cells; type: cell-based; settings: HIV-induced giant cell formation, mean±s.d., n=2–3
Protocol: (§1) Inhibition of HIV-1(IIIB)- and HIV-2(ROD)-induced cytopathicity in wild-type CEM/0 and TK-deficient CEM/TK^− cell cultures was measured in microtitre 96-well plates containing ∼3 × 10^5 CEM cells ml^−1 infected with 100 CCID50 of HIV per millilitre and containing appropriate dilutions of the test compounds. After 4−5 days of incubation at 37 °C in a CO2-controlled humidified atmosphere, CEM giant (syncytium) cell formation was examined microscopically. The EC50 (50% effective concentration) was defined as the compound concentration required to inhibit HIV-induced giant cell formation by 50%.

HIV-2(ROD) [2] = assay: Anti-HIV activity assay, HIV-2 in wild-type CEM/0 cells; type: cell-based; settings: wild-type CEM cells, HIV-induced giant cell formation; mean±s.d., n=2–3; read-out: EC50 CEM HIV-2
Protocol: as §1

HIV-2(ROD) [3] = assay: Anti-HIV activity assay, HIV-2 in TK-deficient CEM/TK− cells; type: cell-based; settings: thymidine kinase-deficient CEM/TK− cells; mean±s.d., n=2–3
Protocol: as §1

CD4+ T-cell (CEM) = assay: Cytotoxicity: inhibition of CEM cell proliferation; type: cell-based, human; settings: 50% cytostatic concentration, mean±s.d., n=2–3
[4] = Enzyme-catalysed hydrolysis in CEM cell extracts; settings: for t1/2(1) CEM: human CEM cell extract, 37 °C
Protocol: The hydrolysis mixtures were analysed by means of analytical RP-18-HPLC.
A volume of 10 μl of the appropriate 50 mM DMSO-d6 stock solution was diluted to 6.0 mM hydrolysis solution by addition of 73.3 μl DMSO-d6. Seven different samples including 10 μl water and 10 μl hydrolysis solution were prepared. The reaction was started by addition of 50 μl human CEM cell extract and the mixture was incubated at 37 °C for different time periods of hydrolysis. The work-up depended on the particular compound: (a) for 3a–f,l,m,p and 4a,e the reactions were stopped by addition of 150 μl MeOH. The solution was kept on ice for 5 min followed by centrifugation for 5 min (13,000 r.p.m.). The supernatants were filtered (Chromafil RC-20/15 MS, 0.2 μm) and stored in liquid nitrogen. (b) For 3g–i,k,n and 4j, the samples were directly frozen in liquid nitrogen. The solution was defrosted followed by ultrasonication for 10 min. After centrifugation for 5 min the supernatants were filtered (Chromafil AO-20/3, 0.2 μm) and stored at −196 °C. (c) For 3j the mixture was diluted with 70 μl THF (HPLC grade) and frozen in liquid nitrogen followed by defrosting, ultrasonication, centrifugation, filtration and stored as described for (b). Samples were defrosted and 50–80 μl were subjected to HPLC analysis.
Human CD4^+ T-lymphocyte CEM cells were grown in RPMI-1640-based cell culture medium to a final density of ∼3·10^6 cells ml^−1. Then, cells were centrifuged for 10 min at 1,250 r.p.m. at 4 °C, washed twice with cold PBS and the pellet was resuspended at 10^8 cells ml^−1 and sonicated (Hielscher Ultrasound Techn., 100% amplitude, three·times for 10 s) to destroy cell integrity. The resulting cell suspension was then centrifuged at 10,000 r.p.m. to remove cell debris, and the supernatant divided into aliquots before being frozen at −80 °C and used.

Structure (SMILES)	t1/2(1) PBS, pH=7.3 [1] [h]	t1/2(2) PBS, pH=7.3 [1] [h]	t1/2(1) PLE (pig liver esterase (PLE)) [h]	t1/2(2) PLE (pig liver esterase (PLE)) [h]	EC50 (HIV-1(IIIB)) [nM]	EC50 (HIV-2(ROD) [2]) [nM]	EC50 (HIV-2(ROD) [3]) [nM]	CC50 (CD4+ T-cell (CEM)) [nM]	t1/2(1) CEM [4] [h]	t1/2 in cell extracts ([4]; degradation of the nucleotide in CEM cell extracts) [h]
CC(=O)Oc1ccc(COP(=O)(OCc2ccc(OC(C)=O)cc2)OP(=O)(O)OP(=O)(O)OC[C@@H]2C=C[C@H](n3cc(C)c(=O)[nH]c3=O)O2)cc1 [3a, γ-Bis-(4-acetyloxybenzyl)-d4TTP]	18	75	1.9	71	430 ± 250	720 ± 160	> 10000	63000 ± 2000	0.050	
CCC(=O)Oc1ccc(COP(=O)(OCc2ccc(OC(=O)CC)cc2)OP(=O)(O)OP(=O)(O)OC[C@@H]2C=C[C@H](n3cc(C)c(=O)[nH]c3=O)O2)cc1 [3b, γ-Bis-(4-propanoyloxybenzyl)-d4TTP]	17	150	0.42	33	460 ± 210	1160 ± 150	> 10000	57000 ± 6000	0.12	
CCCCC(=O)Oc1ccc(COP(=O)(OCc2ccc(OC(=O)CCCC)cc2)OP(=O)(O)OP(=O)(O)OC[C@@H]2C=C[C@H](n3cc(C)c(=O)[nH]c3=O)O2)cc1 [3c, γ-Bis-(4-pentanoyloxybenzyl)-d4TTP]	22	270	0.063	7.7	400	1050 ± 300	> 10000	58000 ± 3000	0.43	
CCCCCCC(=O)Oc1ccc(COP(=O)(OCc2ccc(OC(=O)CCCCCC)cc2)OP(=O)(O)OP(=O)(O)OC[C@@H]2C=C[C@H](n3cc(C)c(=O)[nH]c3=O)O2)cc1 [3d, γ-Bis-(4-heptanoyloxybenzyl)-d4TTP]	26	350	0.013	1.6	360 ± 60	940 ± 160	10000	74000 ± 2000	0.98	
CCCCCCCCCC(=O)Oc1ccc(COP(=O)(OCc2ccc(OC(=O)CCCCCCCCC)cc2)OP(=O)(O)OP(=O)(O)OC[C@@H]2C=C[C@H](n3cc(C)c(=O)[nH]c3=O)O2)cc1 [3f, γ-Bis-(4-decanoyloxybenzyl)-d4TTP]	44	350	0.082	3.0	250 ± 70	330 ± 30	500 ± 140	34000 ± 5000	2.8	
CCCCCCCCCCCC(=O)Oc1ccc(COP(=O)(OCc2ccc(OC(=O)CCCCCCCCCCC)cc2)OP(=O)(O)OP(=O)(O)OC[C@@H]2C=C[C@H](n3cc(C)c(=O)[nH]c3=O)O2)cc1 [3g, γ-Bis-(4-dodecanoyloxybenzyl)-d4TTP]	68	410	0.95	8.3	210 ± 10	270 ± 60	720 ± 160	26000	2.2	
CCCCCCCCCCCCCC(=O)Oc1ccc(COP(=O)(OCc2ccc(OC(=O)CCCCCCCCCCCCC)cc2)OP(=O)(O)OP(=O)(O)OC[C@@H]2C=C[C@H](n3cc(C)c(=O)[nH]c3=O)O2)cc1 [3h, γ-Bis-(4-tetradecanoyloxybenzyl)-d4TTP]	90	355	30		500 ± 140	1100 ± 230	1630 ± 520	28000 ± 7000	4.6	
CCCCCCCCCCCCCCCC(=O)Oc1ccc(COP(=O)(OCc2ccc(OC(=O)CCCCCCCCCCCCCCC)cc2)OP(=O)(O)OP(=O)(O)OC[C@@H]2C=C[C@H](n3cc(C)c(=O)[nH]c3=O)O2)cc1 [3i, γ-Bis-(4-hexadecanoyloxybenzyl)-d4TTP]	73	462	33		620 ± 300	660 ± 80	720 ± 160	61000 ± 3000	5.3	
CCCCCCCCCCCCCCCCCC(=O)Oc1ccc(COP(=O)(OCc2ccc(OC(=O)CCCCCCCCCCCCCCCCC)cc2)OP(=O)(O)OP(=O)(O)OC[C@@H]2C=C[C@H](n3cc(C)c(=O)[nH]c3=O)O2)cc1 [3j, γ-Bis-(4-octadecanoyloxybenzyl)-d4TTP]	50	583	37		170	310	280 ± 40	29000 ± 9000	13	
CCCCCCCC/C=C\CCCCCCCC(=O)Oc1ccc(COP(=O)(OCc2ccc(OC(=O)CCCCCCC/C=C\CCCCCCCC)cc2)OP(=O)(O)OP(=O)(O)OC[C@@H]2C=C[C@H](n3cc(C)c(=O)[nH]c3=O)O2)cc1 [3k, γ-Bis(4-(Z)-octadec-9-enoyloxybenzyl)-d4TTP]	27	92	42		300 ± 10	470 ± 100	930 ± 470	25000 ± 1000	4.3	
COC(=O)Oc1ccc(COP(=O)(OCc2ccc(OC(=O)OC)cc2)OP(=O)(O)OP(=O)(O)OC[C@@H]2C=C[C@H](n3cc(C)c(=O)[nH]c3=O)O2)cc1 [3l, γ-Bis-(4-methyloxycarbonyloxybenzyl)-d4TTP]	24	200	3.8	177	400	920 ± 120	> 10000	16000 ± 1000	0.97	
CCCCOC(=O)N(C)CCN(C)C(=O)Oc1ccc(COP(=O)(OCc2ccc(OC(=O)N(C)CCN(C)C(=O)OCCCC)cc2)OP(=O)(O)OP(=O)(O)OCC2C=CC(n3cc(C)c(=O)[nH]c3=O)O2)cc1 (stereo not shown) [3o, γ-Bis-(4-(butyl-ethane-1,2-diylbis(methylcarbamate))-oxybenzyl)-d4TTP]	27									
CCCCCCCCOC(=O)N(C)CCN(C)C(=O)Oc1ccc(COP(=O)(OCc2ccc(OC(=O)N(C)CCN(C)C(=O)OCCCCCCCC)cc2)OP(=O)(O)OP(=O)(O)OCC2C=CC(n3cc(C)c(=O)[nH]c3=O)O2)cc1 (stereo not shown) [3p, γ-Bis-(4-(octyl-ethane-1,2-diylbis(methylcarbamate))-oxybenzyl)-d4TTP]	48								5.6	
CCCCCCCCCCCCOC(=O)N(C)CCN(C)C(=O)Oc1ccc(COP(=O)(OCc2ccc(OC(=O)N(C)CCN(C)C(=O)OCCCCCCCCCCCC)cc2)OP(=O)(O)OP(=O)(O)OCC2C=CC(n3cc(C)c(=O)[nH]c3=O)O2)cc1 (stereo not shown) [3q, γ-Bis-(4-(dodecyl-ethane-1,2-diylbis(methylcarbamate))-oxybenzyl)-d4TTP]	48									
CC(=O)Oc1ccc(COP(=O)(O)OP(=O)(O)OP(=O)(O)OC[C@@H]2C=C[C@H](n3cc(C)c(=O)[nH]c3=O)O2)cc1 [4a, γ-Mono-(4-acetyloxybenzyl)-d4TTP]		95		108					0.040	
CCCCCCCCC(=O)Oc1ccc(COP(=O)(O)OP(=O)(O)OP(=O)(O)OC[C@@H]2C=C[C@H](n3cc(C)c(=O)[nH]c3=O)O2)cc1 [4e, γ-Mono-(4-nonanoyloxybenzyl)-d4TTP]		237		1.5					1.8	
CCCCCCCCCCCCCCCCCC(=O)Oc1ccc(COP(=O)(O)OP(=O)(O)OP(=O)(O)OC[C@@H]2C=C[C@H](n3cc(C)c(=O)[nH]c3=O)O2)cc1 [4j, γ-Mono-(4-octadecanoyloxybenzyl)-d4TTP]		637		57					4.6	
Cc1cn([C@H]2C=C[C@@H](COP(=O)(O)OP(=O)(O)OP(=O)(O)O)O2)c(=O)[nH]c1=O [d4TTP 19, reference compound]										0.63
